{"source": "patent US20200289554A1", "about": "“BIOORTHOGONAL COMPOUNDS COMPRISING A PROPARGYL GROUP FOR TREATING CANCER” (THE UNIVERSITY COURT OF THE UNIVERSITY OF EDINBURGH, priority 2016, published 2020)", "key": {"U87G cells": {"system": "U87G cells", "test": "Prodrug safety dose-response cell viability (PrestoBlue), U87G", "assay_type": "cell-based, human", "conditions": "U87G cells, 5 days, no catalyst, read-out: EC50 (cell viability)", "protocol": "(§1) These cell lines were selected as these are primary malignancies against which the parental drugs are currently prescribed.\n(§2) The toxicities of each active agent and prodrugs were compared by performing dose-response studies. […] Cell viability was analysed by fluoresce intensity (λex=540 nm; λem=590 nm) after 60-90 min incubation with PrestoBlue™ Reagent (Life Technologies)."}, "A549 cells [1]": {"system": "A549 cells", "test": "Prodrug safety dose-response cell viability (PrestoBlue), A549", "assay_type": "cell-based", "conditions": "Homo sapiens, 120 h, 5 days, no catalyst", "protocol": "as §1, §2"}, "T98 cells [2]": {"system": "T98 cells", "test": "Prodrug safety dose-response cell viability (PrestoBlue), T98", "assay_type": "cell-based", "conditions": "Homo sapiens, 120 h, 5 days, no catalyst", "protocol": "as §1, §2"}, "A549 cells [3]": {"system": "A549 cells", "test": "BOOM conversion: prodrug + metal resins in cell culture, cell viability, A549", "assay_type": "cell-based, human", "conditions": "Pd0-resin 1 mg/mL, 100 μM Vorinostat prodrugs, 1 μM Doxorubicin prodrugs, 0.3 μM Panobinostat prodrug", "protocol": "Cell viabilities for each prodrug provided as a combination with palladium is presented in FIG. 3 and gold is presented in FIG. 33 in the right of each set of two bars. […] Cells were incubated in tissue culture media containing 0.1% (v/v) DMSO and: Pd^0, Au, or Pd/Au-resins (1 mg/mL, negative control); 100 μM of each prodrug (negative control); and Pd^0, Au, or Pd/Au-resins (1 mg/mL)+100 μM of each prodrug (BOOM reaction assay). Cells incubated in 0.1% (v/v) DMSO in media were used as untreated cell control.\n(§3) Following 5 days treatment, cells were incubated with PrestoBlue™ Cell Viability Reagent (Life Technologies) for 60-90 min. Fluorescence intensity values were related to the untreated cells (100% cell viability). […] Cells incubated in 0.1% (v/v) DMSO in media were used as untreated cell control.\n(§4) Cell viabilities for each prodrug provided as a combination with palladium is presented in FIG. 7 in the right of each set of two bars. Data for prodrug in the absence of palladium catalyst is also provided (the left bar of each set of two bars) for comparison along with negative controls (from left to right: DMSO, Pd^0 and Doxorubicin). Cells were incubated in tissue culture media containing 0.1% (v/v) DMSO and: Pd^0-resins (1 mg/mL, negative control); 1 μM of each prodrug (negative control); and Pd^0-resins (1 mg/mL)+1 μM of each prodrug (BOOM reaction assay). Cells incubated in 0.1% (v/v) DMSO in media were used as untreated cell control.\n(§5) Following 5 days treatment, cells were incubated with PrestoBlue™ Cell Viability Reagent (Life Technologies) for 90 min. Fluorescence intensity values were related to the untreated cells (100% cell viability). Data are provided in FIG. 8 for cells incubated in tissue culture media containing 0.1% (v/v) DMSO and: Pd^0-resins (1 mg/mL, negative control); 0.3-3 μM of Doxorubicin prodrug for A549 and DU145 cell lines, 0.1-1 μM of Doxorubicin prodrug for T98 cell line (negative control); 0.3-3 μM of Doxorubicin for A549 and DU145 cell lines, 0.1-1 μM of Doxorubicin for T98 cell line (positive control); and Pd^0-resin (1 mg/mL)+Doxorubicin prodrug (BOOM reaction assay). Cells incubated in 0.1% (v/v) DMSO in media were used as untreated cell control.\nas §4, with “21” for “7”, “panobinostat).” for “Doxorubicin).”\n(§6) The toxigenic effect as a result of in situ generation of parental drug in cell culture was determined by incubating all cells in tissue culture media containing 0.1% (v/v) DMSO and a) Pd^0, Au, or Pd/Au-resin (1 mg/mL for all cells tested, negative control); b) prodrug (negative control); or c) Pd^0, Au, or Pd/Au-resin (1 mg/mL for all cells)+prodrug (reaction assay). Cells incubated in 0.1% (v/v) DMSO in media was used as an untreated cell reference standard (100% viability). A PrestoBlue® cell viability assay as described above was carried out and fluorescent intensities compared to the untreated cell control.\n(§7) A dose response study was performed for each cell line keeping the quantity of Pd^0 resin constant (0.8 mg/mL for U87G and 1 mg/mL for the rest of cell lines). All cells were plated in Dulbecco's Modified Eagle Media (DMEM) supplemented with serum (10% FBS) and L-glutamine (2 mM). […]"}, "MiaPaCa2 cells [4]": {"system": "MiaPaCa2 cells", "test": "Prodrug safety dose-response cell viability (PrestoBlue), MiaPaCa2", "assay_type": "cell-based, human", "conditions": "Homo sapiens, MIA PaCa-2, 120 h, 5 days, no catalyst", "protocol": "as §1, §2"}, "DU145 cells": {"system": "DU145 cells", "test": "BOOM conversion: prodrug + Pd0-resins in cell culture, cell viability, DU145", "assay_type": "cell-based, human", "conditions": "Pd0-resin 1 mg/mL, 1 μM Doxorubicin prodrugs", "protocol": "as §4\nas §5, with “Cells incubated in 0.1% (v/v) DMSO in media were used as untreated cell control.” left out\nThe toxigenic effect as a result of in situ generation of parental drug in cell culture was determined by incubating all cells in tissue culture media containing 0.1% (v/v) DMSO and a) Pd^0, Au, or Pd/Au-resin (1 mg/mL for all cells tested, negative control); b) prodrug (negative control); or c) Pd^0, Au, or Pd/Au-resin (1 mg/mL for all cells)+prodrug (reaction assay). […]\n(§8) A dose response study was performed for each cell line keeping the quantity of Pd^0 resin constant (0.8 mg/mL for U87G and 1 mg/mL for the rest of cell lines). […] Fluorescence intensity values (detected using a PerkinElmer EnVision 2101 multilabel reader with excitation filter at 540 nm and emissions filter at 590 nm) were determined relative to the untreated cell control."}, "T98 cells [5]": {"system": "T98 cells", "test": "BOOM conversion: prodrug + Pd0-resins in cell culture, cell viability, T98", "assay_type": "cell-based, human", "conditions": "Pd0-resin 1 mg/mL, 1 μM Doxorubicin prodrugs", "protocol": "as §3, §4, §5, §6, §7"}, "MiaPaCa2 cells [6]": {"system": "MiaPaCa2 cells", "test": "BOOM conversion: prodrug + Pd0-resins in cell culture, cell viability, MiaPaCa2", "assay_type": "cell-based, human", "conditions": "Pd0-resin 1 mg/mL, 0.03 μM Gemcitabine prodrugs", "protocol": "as §4, with “FIG. 10” for “FIG. 7”, “and Gemcitabine).” for “and Doxorubicin).”, “control); 0.03” for “control); 1”, “(1 mg/mL)+0.03” for “(1 mg/mL)+1”\nFollowing 5 days treatment, cells were incubated with PrestoBlue™ Cell Viability Reagent (Life Technologies) for 90 min. Fluorescence intensity values were related to the untreated cells (100% cell viability). Data are provided in FIG. 11 for cells incubated in tissue culture media containing 0.1% (v/v) DMSO and: Pd^0-resins (1 mg/mL, negative control); 0.003-0.3 μM of pPOBC-Gem (negative control); 0.003-0.3 μM of Gemcitabine (positive control); and Pd^0-resin (1 mg/mL)+pPOBC-Gem (BOOM reaction assay). Cells incubated in 0.1% (v/v) DMSO in media were used as untreated cell control.\nThe toxigenic effect as a result of in situ generation of parental drug in cell culture was determined by incubating all cells in tissue culture media containing 0.1% (v/v) DMSO and a) Pd^0, Au, or Pd/Au-resin (1 mg/mL for all cells tested, negative control); b) prodrug (negative control); or c) Pd^0, Au, or Pd/Au-resin (1 mg/mL for all cells)+prodrug (reaction assay). Cells incubated in 0.1% (v/v) DMSO in media was used as an untreated cell reference standard (100% viability). […]\nas §8"}}, "note": "Read-outs that look alike come from different tables or passages of the source."}
{"smiles": "O=C(CCCCCCC(=O)Nc1ccccc1)NOCc1ccccc1", "note": "[Benzyl-Vor, Benzyl-Vorinostat]", "values": [{"measurement": "EC50", "setting": "U87G cells; Homo sapiens, 120 h", "value": "> 500", "unit": "µM"}, {"measurement": "EC50", "setting": "A549 cells [1]", "value": "> 500", "unit": "µM"}, {"measurement": "EC50", "setting": "T98 cells [2]", "value": "> 500", "unit": "µM"}, {"measurement": "toxigenic effect of prodrug + Pd0 resins", "setting": "A549 cells [3]", "value": "only low levels of toxicity"}]}
{"smiles": "Nc1ccn([C@@H]2O[C@H](CO)[C@@H](O)C2(F)F)c(=O)n1", "note": "[Gemcitabine, reference compound]", "values": [{"measurement": "EC50", "setting": "MiaPaCa2 cells [4]", "value": 0.013, "unit": "µM"}]}
{"smiles": "CCc1c2c(nc3ccc(O)cc13)-c1cc3c(c(=O)n1C2)COC(=O)[C@]3(O)CC", "note": "[SN-38, 10-Hydroxy-7-ethylcamptothecin, reference compound]", "values": [{"measurement": "EC50", "setting": "U87G cells", "value": 0.0246, "unit": "µM"}]}
{"smiles": "Cc1[nH]c2ccccc2c1CCNCc1ccc(/C=C/C(=O)NO)cc1", "note": "[Panobinostat, reference compound]", "values": [{"measurement": "EC50", "setting": "A549 cells [1]", "value": 0.016, "unit": "µM"}]}
{"smiles": "C#CCOc1ccccc1COC(=O)N[C@H]1CC(O[C@H]2C[C@](O)(C(=O)CO)Cc3c(O)c4c(c(O)c32)C(=O)c2c(OC)cccc2C4=O)O[C@@H](C)[C@H]1O", "note": "(stereo partly shown) [oPOBC-Dox, 2-proparglyoxybenzylcarbamoyl Doxorubicin]", "values": [{"measurement": "toxigenic effect of prodrug + Pd0 resins", "setting": "A549 cells [3]", "value": "strong toxigenic effect"}, {"measurement": "toxigenic effect of prodrug + Pd0 resins", "setting": "DU145 cells", "value": "strong toxigenic effect"}, {"measurement": "toxigenic effect of prodrug + Pd0 resins", "setting": "T98 cells [5]", "value": "strong toxigenic effect"}]}
{"smiles": "O=C(Nc1ccn(C2OC(CO)C(O)C2(F)F)c(=O)n1)OCc1ccccc1", "note": "(stereo not shown) [Cbz-Gem, reference compound]", "values": [{"measurement": "toxigenic effect of prodrug + Pd0 resins", "setting": "MiaPaCa2 cells [6]", "value": "only low levels of toxicity"}]}
{"smiles": "COc1cc([C@@H]2c3cc4c(cc3[C@@H](O[C@@H]3O[C@@H]5CO[C@@H](C)O[C@H]5[C@H](O)[C@H]3O)[C@H]3COC(=O)[C@H]23)OCO4)cc(OC)c1O", "note": "[Etoposide, reference compound]", "values": [{"measurement": "EC50", "setting": "U87G cells; Homo sapiens, 120 h", "value": 4.97, "unit": "µM"}]}
{"smiles": "COc1cccc2c1C(=O)c1c(O)c3c(c(O)c1C2=O)C[C@@](O)(C(=O)CO)C[C@@H]3OC1C[C@H](NC(=O)OCc2ccccc2)[C@H](O)[C@H](C)O1", "note": "(stereo partly shown) [Cbz-Dox, Carboxybenzyl Doxorubicin]", "values": [{"measurement": "toxigenic effect of prodrug + Pd0 resins", "setting": "A549 cells [3]", "value": "only low levels of toxicity"}, {"measurement": "toxigenic effect of prodrug + Pd0 resins", "setting": "DU145 cells", "value": "only low levels of toxicity"}, {"measurement": "toxigenic effect of prodrug + Pd0 resins", "setting": "T98 cells [5]", "value": "only low levels of toxicity"}]}
{"smiles": "O=C(CCCCCCC(=O)Nc1ccccc1)NO", "note": "[Vorinostat, reference compound]", "values": [{"measurement": "EC50", "setting": "A549 cells [1]", "value": 4.85, "unit": "µM"}, {"measurement": "EC50", "setting": "T98 cells [2]", "value": 12.4, "unit": "µM"}]}
{"smiles": "C#CCOc1ccc(CONC(=O)/C=C/c2ccc(CNCCc3c(C)[nH]c4ccccc34)cc2)cc1", "note": "[POB-Panob, Propargyloxybenzyl-Panobinostat]", "values": [{"measurement": "EC50", "setting": "A549 cells [1]", "value": 0.758, "unit": "µM"}, {"measurement": "toxigenic effect of prodrug + Pd0 resins", "setting": "A549 cells [3]", "value": "strong toxigenic effect"}]}
{"smiles": "C#CCOc1ccc(COC(=O)N[C@H]2CC(O[C@H]3C[C@](O)(C(=O)CO)Cc4c(O)c5c(c(O)c43)C(=O)c3c(OC)cccc3C5=O)O[C@@H](C)[C@H]2O)cc1", "note": "(stereo partly shown) [pPOBC-Dox, 4-proparglyoxybenzylcarbamoyl Doxorubicin]", "values": [{"measurement": "toxigenic effect of prodrug + Pd0 resins", "setting": "A549 cells [3]", "value": "strong toxigenic effect"}, {"measurement": "toxigenic effect of prodrug + Pd0 resins", "setting": "DU145 cells", "value": "strong toxigenic effect"}, {"measurement": "toxigenic effect of prodrug + Pd0 resins", "setting": "T98 cells [5]", "value": "strong toxigenic effect"}]}
